Measurements as given in patent publication US20130203649A1, “INHIBITORS OF TLR SIGNALING BY TARGETING TIR DOMAIN INTERFACES” (UNIVERSITY OF MARYLAND, BALTIMORE, priority 2012, published 2013).
Residues, ends and D or L forms follow the SMILES beside them. No end group written: not given here.

What was measured:
Type in all cases: cell-based
TLR2 = target: T1, TLR2 (Mus musculus, UniProt Q9QUN7); test: Inhibition of TLR2 signaling in thioglycollate-elicited mouse macrophages (effective concentration, TLR2 agonists P3C/P2C); details: for IL-1β expression induced by TLR2 agonists: P2C and P3C (FIG. 16A, B); for Effective conc.: TLR2 pathway, thioglycollate-elicited mouse macrophages
T1 construct: Primary peritoneal macrophages were obtained by peritoneal lavage; endogenous in cells; host or cells: thioglycollate-elicited mouse peritoneal macrophages
Description: (§1) C57BL/6J mice were obtained from The Jackson Laboratory (Bar Harbor, Me.). Primary peritoneal macrophages were obtained by peritoneal lavage 4 days after intraperitoneal injection (3 ml) of sterile 3% thioglycolate broth. Washed cells were resuspended in RPMI 1640 which contained 2% FBS, 1% penicillin:streptomycin and 2 mM L-glutamine. After plating, cells were incubated overnight at 37° C. and then washed with PBS to remove non-adherent cells. Cells were exposed to peptides 30 min before stimulation with a TLR agonist.
(§2) Protein-free Escherichia coli K235 LPS was used at final concentration of 10 ng/ml to stimulate cells. S-[2,3-bis(palmitoyloxy)-(2-RS)-propyl]-N-palmitoyl-(R)-Cys-Ser-Lys4-OH (P3C) and S-[2,3-bis(palmitoyloxy)-(2-RS)-propyl]-[R]-Cys-Ser-Lys4-OH (P2C) were purchased from EMC microcollections GmbH (Tubingen, Germany) and used for cell stimulation at 500 and 50 ng/ml, respectively. Phospho-ERK1/2 and phospho-JNK1/2 rabbit Abs were obtained from Cell Signaling Technology, Inc. β-actin rabbit Ab were from SantaCruz Biotechnology, Inc.
(§3) Because of the role TRAP plays in TLR2 signaling, TIRAP TIR-derived decoy peptide effects on TLR2-induced cytokine mRNA expression were examined. Thioglycollate-elicited mouse macrophages were stimulated either by P2C, an agonist that induces signaling through TLR2/TLR6 heterodimerization, or P3C, a TLR2/TLR1 agonist, and effects of TIRAP TR-derived decoy peptides on induction of cytokine mRNA were examined. […] To confirm the inhibitory effect of TR3 and TR6 on P3C-induced signaling, IL-6 and TNF-α concentration was measured in macrophage supernatants collected 5 h after stimulation of cells with P3C. […] Concordantly, both TR3 and TR6 diminished the P3C-induced ERK phosphorylation (FIG. 3D).
(§4) C57BL/6J mice were obtained from The Jackson Laboratory (BarHarbor, Me.). Harvesting, culturing, and stimulation of peritoneal macrophages were described in previous publications (1, 18, 19). Escherichia coli K235 LPS (34) was used at the final concentration of 100 ng/ml. The 2,3-bis(palmitoyloxy)-(2-RS)-propyl-N-palmitoyl-(R)-Cys-Ser-Lys4-OH (P3C) and S[2,3-bis(palmitoyloxy)-(2-RS)-propyl]-[R]-Cys-Ser-Lys4-OH (P2C) (EMC Microcollections, Tubingen, Germany) were used at 500 and 50 ng/ml, respectively. Oligonucleotide (ODN) 1668 and low m.w. polyinosinic-polycytidylic acid [poly(I:C)] in complex with LyoVec were obtained from InvivoGen; these agonists were used at 2.5 μM and 400 ng/ml, respectively.

TLR2/TLR1 heterodimer = target: T2, TLR2/TLR1 heterodimer (Mus musculus, UniProt Q9QUN7); test: P3C-induced cytokine mRNA expression in mouse macrophages; details: peptide 30 min; P3C 500 ng/ml 1 hour (FIG. 15A)
T2 construct: endogenous in cells; host or cells: thioglycollate-elicited mouse peritoneal macrophages
Text: (§5) Total cellular RNA was isolated using Tripure from Roche (San Francisco, Calif.) following manufacture's protocol. RNA was then reverse transcribed using AMV Reverse Transcriptase from Promega (Madison, Wis.) with poly-T priming as per manufacturer's directions. cDNA was then quantified by real-time PCR using Applied Biosystems Fast SYBR Green PCR Master Mix and an ABI Prism 7500HT cycler. Primers used for detection: hypoxanthine phosphoribosyltransferase (HPRT) (forward: […] (SEQ ID NO:51), reverse: […] (SEQ ID NO:52)), TNFα (forward: […] (SEQ ID NO:53), reverse: […] (SEQ ID NO:54)), IL-1β (forward: […] (SEQ ID NO:55), reverse: […] (SEQ ID NO:56)), IFNβ (forward: […] (SEQ ID NO:57), reverse: CTCGGACCACCATCCAGG (SEQ ID NO:58)) and RANTES (forward: […] (SEQ ID NO:59), reverse: […] (SEQ ID NO:60)). The primers were designed using Primer Express 2.0 (Applied Biosystems). Using HPRT as reference, the ΔCt method was used to calculate relative gene expression. One-way ANOVA was preformed, as well as Dunnett's multiple comparison post hoc test with a p≦0.01 selected as the level of significance.
as §2, §3, §4

TLR2/TLR6 heterodimer = target: T3, TLR2/TLR6 heterodimer (Mus musculus, UniProt Q9QUN7); test: P2C-induced cytokine mRNA expression in mouse macrophages; details: peptide 30 min; P2C 50 ng/ml 1 hour (FIG. 15B)
T3 construct: endogenous in cells; host or cells: thioglycollate-elicited mouse peritoneal macrophages
Text: as §5, §2, §3, §4

TLR4 [1] = test: Inhibition of TLR4 signaling in thioglycollate-elicited mouse macrophages (effective concentration, overall inhibitory activity); details: TLR4 pathway; thioglycollate-elicited mouse macrophages
Description: as §1
TIRAP/Mal functions to facilitate MyD88 recruitment to the activated TLR4 and TLR2, presumably through a simultaneous interaction with receptor and MyD88 TIR domains. Therefore, multiple TIR:TIR interaction sites are expected in TIRAP TIR. The decoy peptide approach was used to obtain leads on the functional protein-protein interfaces within TIRAP/Mal, a TLR adapter protein. To this end, eleven TIRAP TIR-derived decoy peptides were designed to be structurally homologous to the TLR4 TIR-derived decoy peptides used previously (1), so that each peptide represents a non-fragmented patch of the TIRAP TIR surface, with the entire domain encompassed by the set of peptides. The TIRAP TIR-derived decoy peptides were synthesized in tandem with the cell-permeating sequence of Antennapedia homeodomain (21) and each peptide was tested for the ability to inhibit TLR4 and TLR2 signaling in primary mouse macrophages. Peptide sequences and the structural regions they represent are shown in reference (30).
as §4

TLR4 [2] = test: LPS-induced MAPK (ERK, JNK, p38) activation in mouse macrophages (Western analysis); details: for LPS-induced activation of p38 and ERK MAPKs: 20 μM peptide, LPS 30 min; for LPS-induced activation of ERK and JNK MAPKs: peritoneal macrophages (FIG. 14B)
Description: Cellular protein extracts were isolated by addition of 240 μL per well cold lysate buffer (20 mM Tris, 50 mM NaCl, 1.5 mM MgCl2, 2 mM EDTA, 10 mM NaF, 2 Mm DTT, 1 mM Na3VO4, 1% Triton). Cells were incubated with lysis solution for 30 min on agitator at 4° C. Lysate was then collected and centrifuged at 14,000 g for 10 minutes at 4° C. After quantification using BioRad protein assay, protein samples were added to Laemmli buffer and then boiled for 10 min. Samples were then resolved by SDS-10% PAGE in Tris/glycine/SDS buffer (25 mM Tris, 250 mM glycine, 0.1% SDS), and transferred onto Immobilon P transfer membranes (Millipore, Bedford, Mass.) (100 V, 1.5 h, 4° C.). Membranes were blocked for 1 h in TBS-T (20 mM Tris-HCl, 150 mM NaCl, 0.1% Tween 20) containing 5% nonfat milk, then probed for overnight at 4° C. with the respective antibodies (Abs) (dilution 1:1000 in TBS-T with 2% BSA). After washing in TBS-T, membranes were incubated with secondary HRP-conjugated, donkey anti-rabbit IgG (1:10,000 dilution in TBS-T with 5% nonfat milk) for 1 h at room temperature. Membranes washed five times in TBS-T before development with ECL reagents (GE Healthcare) according to manufacturer's directions.
HEK293T cells were transfected with indicated plasmids using Superfect Transfection Reagent (Qiagen). Twenty-four hours posttransfection, the cells were lysed using the buffer containing 20 mM HEPES (pH 7.4), 150 mM NaCl, 10 mM NaF, 2 mM Na3VO4, 1 mM EDTA, 1 mM EGTA, 0.5% Triton X-100, 0.1 M DTT, 1 mM PMSF, and protease inhibitor mixture (Roche, Indianapolis, Ind.). Rabbit Ab against phospho-ERK, phospho-JNK, MyD88 (D80F5), STAT1-Y701, total STAT1, and GAPDH were purchased from Cell Signaling Technology (Beverly, Mass.). Rabbit anti-phospho-p38 Ab was purchased from Promega (Madison, Wis.). Goat anti-TLR4 (M−16), rabbit anti-TLR4 (H-80), anti-HA-HRP (F-7), and rabbit anti-b-actin Ab were purchased from Santa Cruz Biotechnology. Mouse anti-Flag M2 and rabbit anti-HA Ab were from Sigma-Aldrich. GFP Ab (A1122) was from Invitrogen. Protein was quantified using Bio-Rad protein quantification kit. Equal amount of protein was loaded and analyzed by 10% SDS-PAGE and immunoblotting. The cell extracts containing equal amount of protein were incubated with 1 μg Ab for 2 h, followed by 4-h incubation with 25 μl protein G agarose beads (Roche); the beads were then washed four times with lysis buffer, boiled in […] sample loading buffer, and analyzed by immunoblotting.
We next examined whether TRAM peptides inhibit the TLR4-mediated p38, ERK, and JNK MAPK activation. Murine macrophages pretreated with peptides for 30 min were challenged with LPS. Cell lysates were collected 30 min post-stimulation and analyzed for MAPK phosphorylation by Western analysis. Consistent with peptide effects on steady-state mRNA, both TM4 and TM6 inhibited activation of all three MAPKs (FIG. 5C). The inhibition of MAPKs by TM4 or TM6 was long lasting; it persisted for at least 1 h after LPS stimulation (data not shown). To characterize further the effects of TRAM peptides on MAPKs, murine macrophages were treated with TRAM peptides, but not challenged by LPS.

TLR4 [3] = test: LPS-induced cytokine mRNA expression in mouse macrophages (real-time RT-PCR); details: for LPS-induced TNF-α and IL-1β mRNA expression: 20 μM peptide 30 min, LPS 1 hour (FIG. 13A); for LPS-induced cytokine mRNA induction: peritoneal macrophages (FIG. 14A)
Description: as §1, §5
Total RNA was isolated with Nucleospin RNA II kits (Macherey-Nagel, Bethlehem, Pa.), followed by DNase digestion. cDNA was synthesized from 1 μg RNA using Goscript transcriptase (Promega), and subjected to real-time PCR with gene-specific primers for HPRT, TNF-α, IL-1β, IFNβ, and RANTES on H7900 ABI system using Fast SYBR Green master mix (Applied Biosystems, Foster City, Calif.).
To evaluate peptide-inhibitory activities, we first measured LPS-induced cytokine mRNA expression. […] […] Decoy peptide TM4 is derived from the BB loop of TRAM TIR; we previously identified this peptide as an effective TLR4 inhibitor (19).

T1 sequence (Q9QUN7 25-784): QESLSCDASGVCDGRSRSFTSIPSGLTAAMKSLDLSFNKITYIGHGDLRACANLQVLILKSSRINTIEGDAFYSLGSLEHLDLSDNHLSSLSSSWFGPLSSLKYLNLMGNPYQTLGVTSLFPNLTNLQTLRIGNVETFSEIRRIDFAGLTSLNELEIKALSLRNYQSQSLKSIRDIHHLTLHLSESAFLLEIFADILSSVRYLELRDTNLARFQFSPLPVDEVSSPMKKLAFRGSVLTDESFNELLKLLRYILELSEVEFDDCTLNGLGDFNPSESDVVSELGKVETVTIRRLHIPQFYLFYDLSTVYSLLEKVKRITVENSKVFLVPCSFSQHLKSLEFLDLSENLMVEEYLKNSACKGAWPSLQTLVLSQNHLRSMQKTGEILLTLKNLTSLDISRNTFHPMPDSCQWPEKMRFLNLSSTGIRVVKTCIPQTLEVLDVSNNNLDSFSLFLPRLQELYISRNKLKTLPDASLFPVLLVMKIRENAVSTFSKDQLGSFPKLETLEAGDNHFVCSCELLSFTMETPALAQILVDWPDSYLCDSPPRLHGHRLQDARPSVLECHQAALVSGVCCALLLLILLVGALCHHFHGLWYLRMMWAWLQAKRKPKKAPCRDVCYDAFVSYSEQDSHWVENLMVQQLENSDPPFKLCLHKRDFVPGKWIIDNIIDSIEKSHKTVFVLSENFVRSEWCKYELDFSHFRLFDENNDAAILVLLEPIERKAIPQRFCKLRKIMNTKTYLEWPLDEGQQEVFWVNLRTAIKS
T2 sequence (Q9QUN7 25-784, one chain of several): as the sequence (Q9QUN7 25-784) above
T3 sequence (Q9QUN7 25-784, one chain of several): as the sequence (Q9QUN7 25-784) above

Row | Molecule | Effective conc. (TLR2) | Effective conc. (TLR4 [1]) | LPS-induced activation of ERK and JNK MAPKs (TLR4 [2]) | LPS-induced cytokine mRNA induction (TLR4 [3]) | other results
1 | RQIKIWFQNRRMKWKKEPIERKAIPQRFCK [Peptide 2DD-αD] | 40 µM | – | – | – | IL-1β expression induced by TLR2 agonists (TLR2): potently inhibits
2 | CC[C@H](C)[C@H](NC(=O)[C@H](CCCCN)NC(=O)[C@@H](NC(=O)[C@H](CCC(N)=O)NC(=O)[C@@H](N)CCCNC(=N)N)[C@@H](C)CC)C(=O)N[C@@H](Cc1c[nH]c2ccccc12)C(=O)N[C@@H](Cc1ccccc1)C(=O)N[C@@H](CCC(N)=O)C(=O)N[C@@H](CC(N)=O)C(=O)N[C@@H](CCCNC(=N)N)C(=O)N[C@@H](CCCNC(=N)N)C(=O)N[C@@H](CCSC)C(=O)N[C@@H](CCCCN)C(=O)N[C@@H](Cc1c[nH]c2ccccc12)C(=O)N[C@@H](CCCCN)C(=O)N[C@@H](CCCCN)C(=O)N[C@@H](CCCNC(=N)N)C(=O)N[C@@H](CCCCN)C(=O)N1CCC[C@H]1C(=O)N[C@@H](CCCCN)C(=O)N[C@@H](CCCCN)C(=O)N[C@@H](C)C(=O)N1CCC[C@H]1C(=O)N[C@@H](CS)C(=O)N[C@@H](CCCNC(=N)N)C(=O)N[C@@H](CC(=O)O)C(=O)N[C@H](C(=O)N[C@@H](CS)C(=O)N[C@@H](Cc1ccc(O)cc1)C(=O)N[C@@H](CC(=O)O)C(=O)O)C(C)C [Peptide 2R1] (H-RQIKIWFQNRRMKWKKRKPKKAPCRDVCYD-OH; N-terminus and C-terminus assumed) | 40 µM | – | – | – | Cytokine mRNA expression induced by P3C (TLR2/TLR1 heterodimer): inhibit; Cytokine mRNA expression induced by P2C (TLR2/TLR6 heterodimer): inhibit
3 | RQIKIWFQNRRMKWKKLHKRDFVPGKWIID [Peptide 2BB] | 40 µM | – | – | – | IL-1β expression induced by TLR2 agonists (TLR2): inhibits
4 | RQIKIWFQNRRMKWKKIASELIEKRCRRM [Peptide M5] | – | 20 µM | – | – | LPS-induced activation of p38 and ERK MAPKs (TLR4 [2]): inhibit; LPS-induced TNF-α and IL-1β mRNA expression (TLR4 [3]): inhibit
5 | RQIKIWFQNRRMKWKKHIFWRRLKNALLD [4R11/4αE] | – | 20 µM | potently inhibit | potently inhibit | –
6 | RQIKIWFQNRRMKWKKENSDPPFKLC [Peptide 2R3] | 40 µM | – | – | – | Cytokine mRNA expression induced by P3C (TLR2/TLR1 heterodimer): inhibit
7 | RQIKIWFQNRRMKWKKEEGVPRFHLC [Peptide 4R3] | – | 20 µM | potently inhibit | potently inhibit | –
8 | RQIKIWFQNRRMKWKKAGCKKYSRGESIYD [Peptide 4R1] | – | 20 µM | potently inhibit | potently inhibit | –
9 | RQIKIWFQNRRMKWKKLRQQVELYRLLSR [Peptide 4R9] | – | 20 µM | potently inhibit | potently inhibit | –
10 | RQIKIWFQNRRMKWKKSDRDVLPGTCVWS [Peptide M4] | – | 20 µM | – | – | LPS-induced activation of p38 and ERK MAPKs (TLR4 [2]): inhibit; LPS-induced TNF-α and IL-1β mRNA expression (TLR4 [3]): inhibit
11 | RQIKIWFQNRRMKWKKEQTDYRLKLC [Peptide M3] | – | 20 µM | – | – | LPS-induced activation of p38 and ERK MAPKs (TLR4 [2]): inhibit; LPS-induced TNF-α and IL-1β mRNA expression (TLR4 [3]): inhibit
12 | RQIKIWFQNRRMKWKKPQRFCKLRKIMNT [Peptide 2R9] | 40 µM | – | – | – | Cytokine mRNA expression induced by P3C (TLR2/TLR1 heterodimer): inhibit; Cytokine mRNA expression induced by P2C (TLR2/TLR6 heterodimer): inhibit; TLR2-induced ERK activation (TLR2; FIG. 16C): strongly inhibits
